One test has as its target CDK12 (Homo sapiens, UniProt Q9NYV4). As to the kind of experiment: Inhibition of cyclin-dependent kinase 12 (% enzyme activity at 1 uM and IC50). The following applies: for remaining activity at 1 µM: 1 uM compound. In kind it is biochemical.
For the next test, the system named is MDA-MB-231 cell line. As to the kind of experiment: Antiproliferative activity, MDA-MB-231 cell line (GI50). The format is cell-based. The note with it: Homo sapiens.
A further test concerns CCNK. As to the kind of experiment: CCNK degradation (DC50, Dmax). The note with it: for Dmax (%): CCNK degradation. The format is cell-based.

Broadly, the IC50 is the concentration that gives 50% inhibition. Read a high IC50 as a need for much substance. As a reminder, the GI50 is the concentration that inhibits growth by half. As usually defined, the DC50 is the concentration giving 50% degradation. Higher therefore signals a less potent degrader. Usually remaining activity stands for what remains of the control signal, in per cent. The low end stands for a large loss of activity, the high end for a small loss of activity.

CDK12, sequence (Q9NYV4 whole entry): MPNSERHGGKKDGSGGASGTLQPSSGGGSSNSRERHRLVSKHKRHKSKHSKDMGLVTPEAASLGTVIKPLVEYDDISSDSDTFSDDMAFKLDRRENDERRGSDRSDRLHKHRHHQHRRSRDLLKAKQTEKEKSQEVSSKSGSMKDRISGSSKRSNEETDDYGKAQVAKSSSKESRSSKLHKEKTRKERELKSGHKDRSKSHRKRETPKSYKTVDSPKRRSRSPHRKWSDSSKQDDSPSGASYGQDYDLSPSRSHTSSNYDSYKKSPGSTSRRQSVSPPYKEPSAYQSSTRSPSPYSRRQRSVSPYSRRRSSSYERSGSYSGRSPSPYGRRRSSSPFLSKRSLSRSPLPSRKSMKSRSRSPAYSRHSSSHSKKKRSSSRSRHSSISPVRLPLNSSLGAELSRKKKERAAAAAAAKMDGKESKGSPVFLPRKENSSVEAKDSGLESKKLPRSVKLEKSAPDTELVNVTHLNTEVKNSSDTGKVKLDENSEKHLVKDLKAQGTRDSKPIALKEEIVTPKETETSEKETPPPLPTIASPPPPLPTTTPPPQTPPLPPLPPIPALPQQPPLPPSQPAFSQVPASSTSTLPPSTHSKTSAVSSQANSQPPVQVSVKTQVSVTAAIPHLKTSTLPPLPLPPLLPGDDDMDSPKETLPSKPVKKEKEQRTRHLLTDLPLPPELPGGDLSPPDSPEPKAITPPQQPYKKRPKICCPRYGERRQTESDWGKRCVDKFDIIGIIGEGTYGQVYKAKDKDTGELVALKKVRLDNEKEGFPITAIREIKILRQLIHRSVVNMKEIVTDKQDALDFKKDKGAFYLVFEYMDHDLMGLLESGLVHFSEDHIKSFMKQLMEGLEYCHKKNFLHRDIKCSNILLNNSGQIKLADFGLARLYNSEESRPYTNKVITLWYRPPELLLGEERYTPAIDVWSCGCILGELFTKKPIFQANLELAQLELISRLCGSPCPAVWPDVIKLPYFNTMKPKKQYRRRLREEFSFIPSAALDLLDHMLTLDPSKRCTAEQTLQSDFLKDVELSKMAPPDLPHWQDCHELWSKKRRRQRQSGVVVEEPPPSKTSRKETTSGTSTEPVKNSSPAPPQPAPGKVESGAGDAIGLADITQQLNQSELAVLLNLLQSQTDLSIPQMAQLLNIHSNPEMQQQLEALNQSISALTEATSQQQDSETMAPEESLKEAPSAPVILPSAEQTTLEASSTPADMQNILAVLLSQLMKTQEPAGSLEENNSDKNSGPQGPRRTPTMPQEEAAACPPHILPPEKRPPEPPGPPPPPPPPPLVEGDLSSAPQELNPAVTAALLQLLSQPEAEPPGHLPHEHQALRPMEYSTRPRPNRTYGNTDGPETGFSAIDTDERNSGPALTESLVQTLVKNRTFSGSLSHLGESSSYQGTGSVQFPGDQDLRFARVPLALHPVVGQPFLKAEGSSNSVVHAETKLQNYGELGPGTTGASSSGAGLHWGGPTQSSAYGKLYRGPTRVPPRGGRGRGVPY
CDK12, sequence (O75909 whole entry partner): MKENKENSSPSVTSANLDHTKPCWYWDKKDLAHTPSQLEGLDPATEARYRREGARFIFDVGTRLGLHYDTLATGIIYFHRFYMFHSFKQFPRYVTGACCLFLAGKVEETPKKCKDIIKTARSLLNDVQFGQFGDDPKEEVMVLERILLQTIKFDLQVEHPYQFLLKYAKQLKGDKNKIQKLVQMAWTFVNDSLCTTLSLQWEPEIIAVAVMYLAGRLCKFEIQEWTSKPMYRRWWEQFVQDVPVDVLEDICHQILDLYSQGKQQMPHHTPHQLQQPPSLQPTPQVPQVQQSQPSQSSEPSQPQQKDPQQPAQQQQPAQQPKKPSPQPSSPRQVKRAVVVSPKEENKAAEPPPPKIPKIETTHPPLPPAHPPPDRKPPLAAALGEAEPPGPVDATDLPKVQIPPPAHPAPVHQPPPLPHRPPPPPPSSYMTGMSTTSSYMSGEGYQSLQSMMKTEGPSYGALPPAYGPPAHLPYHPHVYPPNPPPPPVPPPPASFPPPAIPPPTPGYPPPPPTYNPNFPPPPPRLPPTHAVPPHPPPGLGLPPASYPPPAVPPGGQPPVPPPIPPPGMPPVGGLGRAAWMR

Consider `Clc1cccc2nc(CNc3cc(NC4CCNCC4)nn4c(-c5ccsc5)cnc34)[nH]c12` [Cmpd 72, N8-((7-chloro-1H-benzo[d]imidazol-2-yl)methyl)-N6-(piperidin-4-yl)-3-(thiophen-3-yl) imidazo[1,2-b]pyridazine-6,8-diamine], for which the IC50 on CDK12 is 56 nM. The molecule further returned a GI50 in the test with MDA-MB-231 cell line of 49 nM. Moreover, in the test on CCNK, the DC50 amounted to 50 nM and the “Dmax (%)” value was found to be 100%.

Take `CN1CCN(c2cc(NCc3nc4cc(Cl)c(Cl)cc4[nH]3)c3ncc(-c4cnn(C(F)F)c4)n3n2)CC1` [Cmpd 41, N-((5,6-dichloro-1H-benzo[d]imidazol-2-yl)methyl)-3-(1-(difluoromethyl)-1H-pyrazol-4-yl)-6-(4-methylpiperazin-1-yl) imidazo[1,2-b]pyridazin-8-amine]: at CDK12, inhibition was half-maximal at 1000 nM (IC50). Besides, the GI50 in the test with MDA-MB-231 cell line turned out to be 247 nM. For the same molecule, in the test on CCNK, the 50% degradation concentration (DC50) was 470 nM and the “Dmax (%)” value is listed as 100%.

On CDK12, `CN1CCN(c2cc(NCc3nc4c(F)cccc4[nH]3)c3ncc(-c4cnn(C5CC5)c4)n3n2)CC1` [Cmpd 35, 3-(1-cyclopropyl-1H-pyrazol-4-yl)-N-((4-fluoro-1H-benzo[d]imidazol-2-yl)methyl)-6-(4-methylpiperazin-1-yl) imidazo[1,2-b]pyridazin-8-amine] registered a remaining activity at 1 µM of 49%. For the same molecule, in the test on MDA-MB-231 cell line, the 50% growth inhibitory concentration (GI50) worked out at 5170 nM. Moreover, in the test with CCNK, the DC50 stood at 1300 nM and the “Dmax (%)” value was found to be 80%.

In turn, `Cc1ccnc2[nH]c(CNc3cc(N4CCOCC4)nn4c(-c5cnn(C)c5)cnc34)nc12` [Cmpd 12, 3-(1-methyl-1H-pyrazol-4-yl)-N-((7-methyl-3H-imidazo[4,5-b]pyridin-2-yl)methyl)-6-morpholinoimidazo[1,2-b]pyridazin-8-amine] returned a 50% inhibitory concentration (IC50) at CDK12 of 1000 nM. For the same molecule, halving of growth with MDA-MB-231 cell line (GI50) required 5690 nM. Moreover, in the test on CCNK, the DC50 came out at 2100 nM and the “Dmax (%)” value is 65%.

On CDK12, `CC(C)n1cc(-c2cnc3c(NCc4nc5c(F)cccc5[nH]4)cc(N4CCOCC4)nn23)cn1` [Cmpd 27, N-((4-fluoro-1H-benzo[d]imidazol-2-yl)methyl)-3-(1-isopropyl-1H-pyrazol-4-yl)-6-morpholinoimidazo[1,2-b]pyridazin-8-amine] came in with an IC50 of 1080 nM and a remaining activity at 1 µM of 52%. The molecule further had a GI50 in the test on MDA-MB-231 cell line of 10000 nM. Also, in the test with CCNK, the DC50 was found to be 1600 nM and the “Dmax (%)” value is recorded as 50%.

As to `CC(C)n1cc(-c2cnc3c(NCc4nc5cc(Cl)c(Cl)cc5[nH]4)cc(N4CCN(C)CC4)nn23)cn1` [Cmpd 14, N-((5,6-dichloro-1H-benzo[d]imidazol-2-yl)methyl)-3-(1-isopropyl-1H-pyrazol-4-yl)-6-(4-methylpiperazin-1-yl) imidazo[1,2-b]pyridazin-8-amine], at CDK12, inhibition was half-maximal at 5000 nM (IC50) and the remaining activity at 1 µM is 84%. Further, growth in the test with MDA-MB-231 cell line was halved (GI50) at 1770 nM. The molecule further showed a DC50 with CCNK of 10000 nM.

In the case of `CN1CCN(c2cc(NCc3nc4cc(Cl)c(Cl)cc4[nH]3)c3ncc(-c4cnn(C)c4)n3n2)CC1` [Cmpd 8, N-((5,6-dichloro-1H-benzo[d]imidazol-2-yl)methyl)-3-(1-methyl-1H-pyrazol-4-yl)-6-(4-methylpiperazin-1-yl) imidazo[1,2-b]pyridazin-8-amine], the IC50 against CDK12 was found to be 10000 nM. It took 424 nM to inhibit growth in the test with MDA-MB-231 cell line by half (GI50). Also, in the test on CCNK, half-maximal degradation (DC50) was put at 1300 nM and the “Dmax (%)” value came to 100%.

At CDK12, `CN1CCN(c2cc(NCc3nc4cccc(Cl)c4[nH]3)c3ncc(-c4csc(C#N)c4)n3n2)CC1` [Cmpd 81, 4-(8-(((7-chloro-1/-benzo[d]imidazol-2-yl)methyl)amino)-6-(4-methylpiperazin-1-yl)imidazo[1,2-b]pyridazin-3-yl)thiophene-2-carbonitrile] came in with a concentration for half-maximal inhibition (IC50) of 647 nM and a remaining activity at 1 µM of 33%. In the test on MDA-MB-231 cell line, the GI50 worked out at 1920 nM. Also, in the test on CCNK, the DC50 was determined as 300 nM and the “Dmax (%)” value was 80%.

On CDK12, `Cc1cc(-c2cnc3c(NCc4nc5c(F)cccc5[nH]4)cc(N4CCN(C)CC4)nn23)cs1` [Cmpd 93, N-((4-fluoro-1H-benzo[d]imidazol-2-yl)methyl)-6-(4-methylpiperazin-1-yl)-3-(5-methylthiophen-3-yl) imidazo[1,2-b]pyridazin-8-amine] came in with an IC50 of 1220 nM and a remaining activity at 1 µM of 36%. Also, the GI50 in the test on MDA-MB-231 cell line is 1250 nM. Further, in the test on CCNK, it took 80 nM to reach half-maximal degradation (DC50) and the “Dmax (%)” value is given as 80%.

The molecule `Clc1cc2nc(CNc3cc(N4CCOCC4)nn4c(-c5ccsc5)cnc34)[nH]c2cc1Cl` [Cmpd 64, N-((5,6-dichloro-1H-benzo[d]imidazol-2-yl)methyl)-6-morpholino-3-(thiophen-3-yl) imidazo[1,2-b]pyridazin-8-amine] returned an IC50 against CDK12 of 4250 nM. Also, it took 168 nM to inhibit growth in the test on MDA-MB-231 cell line by half (GI50). In addition, in the test on CCNK, it took 340 nM to reach half-maximal degradation (DC50) and the “Dmax (%)” value worked out at 100%.

For `Cc1ccnc2[nH]c(CNc3cc(N4CCN(C)CC4)nn4c(-c5cnn(C(C)C)c5)cnc34)nc12` [Cmpd 20, 3-(1-isopropyl-1H-pyrazol-4-yl)-N-((7-methyl-3H-imidazo[4,5-b]pyridin-2-yl)methyl)-6-(4-methylpiperazin-1-yl) imidazo[1,2-b]pyridazin-8-amine], at CDK12, half-maximal inhibition (IC50) required 531 nM and the remaining activity at 1 µM came out at 30%. Besides, in the test on MDA-MB-231 cell line, growth was halved (GI50) at 6670 nM. The same molecule returned a DC50 in the test on CCNK of 10000 nM.

On CDK12, `CC(C)n1cc(-c2cnc3c(NCc4nc5cccc(Cl)c5[nH]4)cc(N4CCN(C)CC4)nn23)cn1` [Cmpd 17, N-((7-chloro-1H-benzo[d]imidazol-2-yl)methyl)-3-(1-isopropyl-1H-pyrazol-4-yl)-6-(4-methylpiperazin-1-yl) imidazo[1,2-b]pyridazin-8-amine] displayed an IC50 of 919 nM and a remaining activity at 1 µM of 45%. The GI50 in the test with MDA-MB-231 cell line turned out to be 5600 nM. For the same molecule, the DC50 in the test on CCNK is 10000 nM.

`FC(F)n1cc(-c2cnc3c(NCc4nc5cc(Cl)c(Cl)cc5[nH]4)cc(N4CCOCC4)nn23)cn1` [Cmpd 42, N-((5,6-dichloro-1H-benzo[d]imidazol-2-yl)methyl)-3-(1-(difluoromethyl)-1H-pyrazol-4-yl)-6-morpholinoimidazo[1,2-b]pyridazin-8-amine]: the IC50 against CDK12 was 36 nM. Besides, in the test with MDA-MB-231 cell line, the GI50 turned out to be 127 nM. Besides, in the test with CCNK, the DC50 turned out to be 180 nM and the “Dmax (%)” value is reported as 100%.

On to `CN1CCN(c2cc(NCc3nc4cc(Cl)c(Cl)cc4[nH]3)c3ncc(-c4csc(C#N)c4)n3n2)CC1` [Cmpd 79, 4-(8-(((5,6-dichloro-1H-benzo[d]imidazol-2-yl)methyl)amino)-6-(4-methylpiperazin-1-yl)imidazo[1,2-b]pyridazin-3-yl)thiophene-2-carbonitrile], for which, on CDK12, inhibition was half-maximal at 5000 nM (IC50) and the remaining activity at 1 µM came to 80%. The molecule also showed a GI50 in the test with MDA-MB-231 cell line of 1470 nM. Besides, in the test with CCNK, the DC50 came out at 1700 nM and the “Dmax (%)” value is recorded as 75%.

Consider `CN1CCN(c2cc(NCc3nc4cccc(Cl)c4[nH]3)c3ncc(-c4ccsc4)n3n2)CC1` [Cmpd 66, N-((7-chloro-1H-benzo[d]imidazol-2-yl)methyl)-6-(4-methylpiperazin-1-yl)-3-(thiophen-3-yl) imidazo[1,2-b]pyridazin-8-amine], for which the midpoint of inhibition against CDK12, the IC50, lay at 90 nM. Growth in the test on MDA-MB-231 cell line was halved (GI50) at 180 nM. Also, in the test on CCNK, the DC50 came out at 80 nM and the “Dmax (%)” value came out at 85%.

Regarding `Cc1ccnc2[nH]c(CNc3cc(N4CCN(C)CC4)nn4c(-c5ccsc5)cnc34)nc12` [Cmpd 75, N-((7-methyl-3H-imidazo[4,5-b]pyridin-2-yl)methyl)-6-(4-methylpiperazin-1-yl)-3-(thiophen-3-yl) imidazo[1,2-b]pyridazin-8-amine], the IC50 on CDK12 was determined as 38 nM. Moreover, in the test with MDA-MB-231 cell line, the GI50 was 146 nM. Further, in the test with CCNK, half-maximal degradation (DC50) was put at 140 nM and the “Dmax (%)” value is given as 80%.

`Fc1ccc2[nH]c(CNc3cc(N4CCOCC4)nn4c(-c5cnn(C(F)F)c5)cnc34)nc2c1F` [Cmpd 55, N-((4,5-difluoro-1H-benzo[d]imidazol-2-yl)methyl)-3-(1-(difluoromethyl)-1H-pyrazol-4-yl)-6-morpholinoimidazo[1,2-b]pyridazin-8-amine]: the half-maximal inhibitory concentration (IC50) against CDK12 was found to be 283 nM. The GI50 in the test with MDA-MB-231 cell line stood at 472 nM. In the test on CCNK, the DC50 came out at 70 nM and the “Dmax (%)” value is 80%.

For `Cc1ccnc2[nH]c(CNc3cc(N4CCN(C)CC4)nn4c(-c5cnn(C)c5)cnc34)nc12` [Cmpd 11, 3-(1-methyl-1H-pyrazol-4-yl)-N-((7-methyl-3H-imidazo[4,5-b]pyridin-2-yl)methyl)-6-(4-methylpiperazin-1-yl) imidazo[1,2-b]pyridazin-8-amine], the IC50 at CDK12 is 1000 nM. The GI50 in the test with MDA-MB-231 cell line stood at 7930 nM. In the test on CCNK, it took 5600 nM to reach half-maximal degradation (DC50) and the “Dmax (%)” value is 60%.

Regarding `CC(C)n1cc(-c2cnc3c(NCc4nc5cc(Cl)c(Cl)cc5[nH]4)cc(N4CCOCC4)nn23)cn1` [Cmpd 15, N-((5,6-dichloro-1H-benzo[d]imidazol-2-yl)methyl)-3-(1-isopropyl-1H-pyrazol-4-yl)-6-morpholinoimidazo[1,2-b]pyridazin-8-amine], on CDK12, the midpoint of inhibition, the IC50, lay at 3000 nM and the remaining activity at 1 µM was 68%. The same molecule displayed a GI50 in the test on MDA-MB-231 cell line of 4110 nM. In addition, in the test on CCNK, the 50% degradation concentration (DC50) was 2100 nM and the “Dmax (%)” value is on record as 65%.

In turn, `CC1(C)CN(c2cc(NCc3nc4cc(Cl)c(Cl)cc4[nH]3)c3ncc(-c4cnn(C(F)F)c4)n3n2)CCN1` [Cmpd 47, N-((5,6-dichloro-1H-benzo[d]imidazol-2-yl)methyl)-3-(1-(difluoromethyl)-1H-pyrazol-4-yl)-6-(3,3-dimethylpiperazin-1-yl) imidazo[1,2-b]pyridazin-8-amine] registered an IC50 at CDK12 of 18 nM. For the same molecule, in the test on MDA-MB-231 cell line, the GI50 was determined as 7 nM. Further, in the test with CCNK, the DC50 turned out to be 30 nM and the “Dmax (%)” value came out at 100%.

`CN1CCC(Nc2cc(NCc3nc4cc(Cl)c(Cl)cc4[nH]3)c3ncc(-c4cnn(C(F)F)c4)n3n2)CC1` [Cmpd 46, N8-((5,6-dichloro-1H-benzo[d]imidazol-2-yl)methyl)-3-(1-(difluoromethyl)-1H-pyrazol-4-yl)-N6-(1-methylpiperidin-4-yl) imidazo[1,2-b]pyridazine-6,8-diamine] displayed a half-inhibitory concentration (IC50) against CDK12 of 68 nM. This molecule had a GI50 with MDA-MB-231 cell line of 25 nM. In the test with CCNK, half-maximal degradation (DC50) was put at 180 nM and the “Dmax (%)” value was 100%.
